Measured values reported in patent US10669272B2, “Substituted naphthyridinone compounds useful as T cell activators” (BRISTOL-MYERS SQUIBB COMPANY, priority 2018, dated 2020).
Counter-ions that a name gives are not always drawn. Like-named read-outs stand apart in the source and are kept apart here.

Experiments:
Human venous whole blood = assay: Human whole blood IFN-γ assay; type: cell-based; conditions: human whole blood, read-out: INFg Whole Blood Normalized Agonist EC50;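 further: blood from healthy donors exposed to compound for 1 h before stimulation with anti-CD3 and anti-CD28 at 1 µg/mL each, IFN-γ quantified in supernatant by AlphaLISA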
[1] = test system: OT-1 CD8+ T cells with SIINFEKL-loaded MC38 tumor cells; assay: Murine cytotoxic T lymphocyte assay (IFN-γ, OT-1 CTL with MC38 tumor cells); type: cell-based, mouse; conditions: read-out: msCTL INFg IC50
From the text: 5. Murine Cytotoxic T Lymphocyte Assay
An antigen-specific cytolytic T-cell (CTL) assay was developed to evaluate functionally the ability of DGKα and DGKζ inhibitors to enhance effector T cell mediated tumor cell killing activity. CD8+ T-cells isolated from the OT-1 transgenic mouse recognize antigen presenting cells, MC38, that present the ovalbumin derived peptide […]. Recognition of the cognate antigen initiates the cytolytic activity of the OT-1 antigen-specific CD8+ T cells.
Functional CTL cells were generated as follows: OT-1 splenocytes from 8-12 week old mice were isolated and expanded in the presence of the […] peptide at 1 μg/mL and mIL2 at 10 U/mL. After three days, fresh media with […] was added. On day 5 of the expansion, the CD8+ T cells were isolated and ready for use. Activated CTL cells may be stored frozen for 6 months. Separately, one million MC38 tumor cells were pulsed with 1 μg/mL of […]-OVA peptide for 3 hours at 37° C. The cells were washed (3×) with fresh media to remove excess peptide. Finally, CTL cells that were pretreated with DGK inhibitors for 1 hour in a 96-well U bottom plate were combined with the antigen loaded MC38 tumor cells at a 1:10 ratio. The cells were then spun at 700 rpm for 5 min and placed in an incubator overnight at 37° C. After 24 hours, the supernatant was collected for analysis of IFN-γ cytokine levels by AlphaLisa purchased from Perkin Elmer.

human DGKζ = biological target: T1, human DGKζ (Homo sapiens, UniProt Q13574); assay: DGKζ LIPGLO assay (extruded liposome substrate), in vitro DGK inhibition; type: biochemical; conditions: read-out: DGKz LIPGLO IC50
T1 construct: TVMV protease cleavage site (C); Hexa-His (C); made in house; host or cells: Sf9 insect cells (baculovirus, Bac-to-Bac)

human DGKα = biological target: T2, human DGKα (Homo sapiens, UniProt P23743); assay: DGKα LIPGLO assay (extruded liposome substrate), in vitro DGK inhibition; type: biochemical; conditions: read-out: DGKa LIPGLO IC50
T2 construct: TVMV protease cleavage site (C); Hexa-His (C); made in house; host or cells: Sf9 insect cells (baculovirus, Bac-to-Bac)

[2] = normalized to 3 μM reference compound with anti-CD3 plus anti-CD28 as 100% activation
[3] = Homo sapiens, 24 h, normalized to 3 μM reference compound with anti-CD3 plus anti-CD28 as 100% activation
[4] = Homo sapiens, 24 h, anti-CD3 plus anti-CD28, 24 hours, 3 μM reference compound = 100% activation
[5] = Mus musculus, MC-38, murine CTL, IFN-γ

T2 sequence (P23743 with tags, fused parts or gaps): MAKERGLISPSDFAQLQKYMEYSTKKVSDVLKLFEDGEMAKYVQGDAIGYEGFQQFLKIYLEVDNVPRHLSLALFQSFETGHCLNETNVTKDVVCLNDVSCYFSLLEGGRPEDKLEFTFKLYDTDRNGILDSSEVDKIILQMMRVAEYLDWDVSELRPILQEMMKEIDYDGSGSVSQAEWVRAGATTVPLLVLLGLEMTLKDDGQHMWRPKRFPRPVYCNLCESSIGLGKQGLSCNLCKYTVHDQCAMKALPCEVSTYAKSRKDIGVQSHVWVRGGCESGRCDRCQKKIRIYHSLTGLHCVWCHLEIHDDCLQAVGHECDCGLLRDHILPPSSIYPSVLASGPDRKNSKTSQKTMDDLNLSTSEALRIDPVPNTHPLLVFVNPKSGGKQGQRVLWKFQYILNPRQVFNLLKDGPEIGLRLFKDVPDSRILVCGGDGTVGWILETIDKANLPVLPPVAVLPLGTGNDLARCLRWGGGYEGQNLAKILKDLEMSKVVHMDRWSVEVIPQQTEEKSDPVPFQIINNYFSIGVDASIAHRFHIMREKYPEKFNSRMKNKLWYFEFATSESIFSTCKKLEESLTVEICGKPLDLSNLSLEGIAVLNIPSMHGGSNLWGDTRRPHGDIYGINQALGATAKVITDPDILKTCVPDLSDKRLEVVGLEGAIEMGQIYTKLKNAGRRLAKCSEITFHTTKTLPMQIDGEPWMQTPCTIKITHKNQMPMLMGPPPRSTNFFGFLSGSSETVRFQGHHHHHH
T1 sequence (Q13574 with tags, fused parts or gaps isoform Q13574-4): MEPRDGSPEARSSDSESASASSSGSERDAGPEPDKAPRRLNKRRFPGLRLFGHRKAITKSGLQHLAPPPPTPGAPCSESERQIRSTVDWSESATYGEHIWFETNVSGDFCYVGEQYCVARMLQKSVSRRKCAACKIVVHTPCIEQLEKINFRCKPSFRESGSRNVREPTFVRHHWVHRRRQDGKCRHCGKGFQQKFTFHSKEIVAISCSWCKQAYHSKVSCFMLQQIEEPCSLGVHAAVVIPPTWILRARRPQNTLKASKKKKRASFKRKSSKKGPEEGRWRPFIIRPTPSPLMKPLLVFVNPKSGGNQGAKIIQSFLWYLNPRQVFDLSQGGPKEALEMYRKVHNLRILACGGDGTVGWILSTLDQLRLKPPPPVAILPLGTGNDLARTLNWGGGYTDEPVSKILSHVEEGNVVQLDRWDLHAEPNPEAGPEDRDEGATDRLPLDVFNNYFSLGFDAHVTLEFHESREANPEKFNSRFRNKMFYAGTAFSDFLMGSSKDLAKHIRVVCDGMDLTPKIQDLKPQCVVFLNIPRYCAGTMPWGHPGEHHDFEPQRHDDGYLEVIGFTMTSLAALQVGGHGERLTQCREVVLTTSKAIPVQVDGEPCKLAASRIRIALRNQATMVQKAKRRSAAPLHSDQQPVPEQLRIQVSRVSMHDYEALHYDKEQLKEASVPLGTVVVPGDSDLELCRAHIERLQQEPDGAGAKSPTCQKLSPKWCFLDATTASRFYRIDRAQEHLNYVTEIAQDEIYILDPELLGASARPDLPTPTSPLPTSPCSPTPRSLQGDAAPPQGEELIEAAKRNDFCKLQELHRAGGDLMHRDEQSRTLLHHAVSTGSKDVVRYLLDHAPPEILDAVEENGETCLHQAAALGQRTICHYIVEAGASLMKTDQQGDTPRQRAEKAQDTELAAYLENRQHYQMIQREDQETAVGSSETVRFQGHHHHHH

Row | SMILES | IC50 (human DGKζ; liposome (LIPGLO) assay) [µM] | IC50 (human DGKα; liposome (LIPGLO) assay) [µM] | IC50 (human DGKζ; DGKζ liposome (LIPGLO) assay) [µM] | IC50 (human DGKα; DGKα liposome (LIPGLO) assay) [µM] | EC50 (Human venous whole blood; [2]) [µM] | IC50 [1] [µM] | EC50 (Human venous whole blood; [3]) [µM] | IC50 ([1]; Mus musculus, MC-38) [µM] | EC50 (Human venous whole blood; [4]) [µM] | IC50 ([1]; murine CTL, IFN-γ) [µM] | IC50 [1, 5] [µM]
1 | CC1C(C)N(C(c2ccc(F)cc2)c2ccc(F)cc2)CCN1c1cc(=O)n(C)c2ccc(C#N)nc12 (single isomer, unassigned) [Example 123, 8-(4-(bis(4-fluorophenyl)methyl)-2,3-dimethylpiperazin-1-yl)-5-methyl-6-oxo-5,6-dihydro-1,5-naphthyridine-2-carbonitrile] | 240 | 2.4 |  |  | 35 | 2.4 |  |  |  |  | 
2 | Cn1c(=O)cc(N2CCN(C(c3ccc(F)cc3)c3ccc(F)cc3)C(C(C)(C)F)C2)c2nc(C#N)ccc21 (single isomer, unassigned) [Example 80, 8-(4-(bis(4-fluorophenyl)methyl)-3-(2-fluoropropan-2-yl)piperazin-1-yl)-5-methyl-6-oxo-5,6-dihydro-1,5-naphthyridine-2-carbonitrile] | 240 | 0.67 |  |  |  | 3.1 | 10 |  |  |  | 
3 | COC(=O)C1CN(c2cc(=O)n(C)c3ccc(C#N)nc23)CCN1C(c1ccc(F)cc1)c1ccc(F)cc1OC (single isomer, unassigned) [Example 71, Methyl 4-(6-cyano-1-methyl-2-oxo-1,2-dihydro-1,5-naphthyridin-4-yl)-1-((4-fluoro-2-methoxyphenyl)(4-fluorophenyl)methyl)piperazine-2-carboxylate] | 52 | 240 |  |  | 10 | 3.8 |  |  |  |  | 
4 | CC1C(C)N(C(c2ccc(F)cc2)c2ccc(F)cc2)CCN1c1cc(=O)n(C)c2ccc(C#N)nc12 (single isomer, unassigned) [Example 124, 8-(4-(bis(4-fluorophenyl)methyl)-2,3-dimethylpiperazin-1-yl)-5-methyl-6-oxo-5,6-dihydro-1,5-naphthyridine-2-carbonitrile] | 15 | 9.9 |  |  | 4.8 | 0.39 |  |  |  |  | 
5 | CC(C)C(C)(F)C1CN(c2cc(=O)n(C)c3ccc(C#N)nc23)CCN1C(c1ccc(F)cc1)c1ccc(F)cc1 (single isomer, unassigned) [Example 90, 8-(4-(bis(4-fluorophenyl)methyl)-3-(2-fluoro-3-methylbutan-2-yl)piperazin-1-yl)-5-methyl-6-oxo-5,6-dihydro-1,5-naphthyridine-2-carbonitrile, TFA] | 240 | 240 |  |  |  |  | 20 | 4.8 |  |  | 
6 | Cc1ccc(C(C)N2CCN(c3c(C#N)c(=O)n(C)c4ccc(C#N)nc34)C[C@H]2C)cc1 (single isomer, unassigned) [Example 952] |  |  | 2.3 | 0.59 |  |  |  |  | 3 | 5.9 | 
7 | C[C@@H]1CN(c2c(C#N)c(=O)n(C)c3ccc(C#N)nc23)CCN1Cc1c(F)cc(F)cc1F [Example 986] |  |  | 2.6 | 4.2 |  |  |  |  | 20 |  | 3.7
8 | Cn1c(=O)cc(N2CCN(C(c3ccc(F)cc3)c3ccc(F)cc3)CC2c2ccccc2)c2nc(C#N)ccc21 (single isomer, unassigned) [Example 156, 8-(4-(bis(4-fluorophenyl)methyl)-2-phenylpiperazin-1-yl)-5-methyl-6-oxo-5,6-dihydro-1,5-naphthyridine-2-carbonitrile] | 9.8 | 8.5 |  |  | 6.9 | 0.4 |  |  |  |  | 
9 | C[C@@H]1CN(c2c(C#N)c(=O)n(C)c3ccc(C#N)nc23)CCN1Cc1ccc(F)cc1F [Example 985] |  |  | 3 | 2.2 |  |  |  |  | 9.7 |  | 4.1
10 | COC(=O)C1CN(c2c(F)c(=O)n(C)c3ccc(C#N)nc23)CCN1C(c1ccc(F)cc1)c1ccc(F)cc1 (single isomer, unassigned) [Example 74, Methyl 1-(bis(4-fluorophenyl)methyl)-4-(6-cyano-3-fluoro-1-methyl-2-oxo-1,2-dihydro-1,5-naphthyridin-4-yl)piperazine-2-carboxylate] | 8.6 | 23 |  |  |  | 0.29 | 8.6 |  |  |  | 
11 | Cn1c(=O)cc(N2CCN(C(c3ccc(F)cc3)c3ccc(F)cc3)CC2C2CC2)c2nc(C#N)ccc21 (single isomer, unassigned) [Example 23, 8-(4-(bis(4-fluorophenyl)methyl)-2-cyclopropylpiperazin-1-yl)-5-methyl-6-oxo-5,6-dihydro-1,5-naphthyridine-2-carbonitrile] | 100 | 240 |  |  |  | 1.4 | 10 |  |  |  | 

Second part, led by results:

Row | IC50 (human DGKζ; liposome (LIPGLO) assay) [µM] | IC50 (human DGKα; liposome (LIPGLO) assay) [µM] | IC50 (human DGKζ; DGKζ liposome (LIPGLO) assay) [µM] | IC50 (human DGKα; DGKα liposome (LIPGLO) assay) [µM] | SMILES | EC50 (Human venous whole blood; [2]) [µM] | IC50 [1] [µM] | EC50 (Human venous whole blood; [3]) [µM] | IC50 ([1]; Mus musculus, MC-38) [µM] | EC50 (Human venous whole blood; [4]) [µM] | IC50 ([1]; murine CTL, IFN-γ) [µM] | IC50 [1, 5] [µM]
12 | 0.85 | 21 |  |  | COC(=O)C1CN(c2cc(=O)n(C)c3ccc(C#N)nc23)CCN1C(c1ccc(F)cc1)c1ccc(F)cc1OC (single isomer, unassigned) [Example 69, Methyl 4-(6-cyano-1-methyl-2-oxo-1,2-dihydro-1,5-naphthyridin-4-yl)-1-((4-fluoro-2-methoxyphenyl)(4-fluorophenyl)methyl)piperazine-2-carboxylate] | 2.5 | 0.22 |  |  |  |  | 
13 | 6.4 | 5.4 |  |  | Cn1c(=O)cc(N2CCN(C(c3ccc(F)cc3)c3ccc(F)cc3)CC2C#N)c2nc(C#N)ccc21 (single isomer, unassigned) [Example 143, 8-(4-(bis(4-fluorophenyl)methyl)-2-cyanopiperazin-1-yl)-5-methyl-6-oxo-5,6-dihydro-1,5-naphthyridine-2-carbonitrile] |  |  | 5.7 | 0.33 |  |  | 
14 | 0.82 | 1.4 |  |  | C[C@@H]1CN(c2c(Cl)c(=O)n(C)c3ccc(C#N)nc23)CCN1C(c1ccc(Cl)cc1)c1ccc(Cl)cc1 [Example 105, (R)-8-(4-(bis(4-chlorophenyl)methyl)-3-methylpiperazin-1-yl)-7-chloro-5-methyl-6-oxo-5,6-dihydro-1,5-naphthyridine-2-carbonitrile, dimethylformamide] |  |  | 4.3 | 0.074 |  |  | 
15 | 1.2 | 7.4 |  |  | CC(C)C(=O)C1CN(c2cc(=O)n(C)c3ccc(C#N)nc23)CCN1C(c1ccc(F)cc1)c1ccc(F)cc1 (single isomer, unassigned) [Example 86, 8-(4-(bis(4-fluorophenyl)methyl)-3-isobutyrylpiperazin-1-yl)-5-methyl-6-oxo-5,6-dihydro-1,5-naphthyridine-2-carbonitrile] |  | 0.2 | 2.9 |  |  |  | 
16 | 2.6 | 77 |  |  | COc1cc(F)ccc1C(c1ccc(F)cc1)N1C[C@H](C)N(c2c(C#N)c(=O)n(C)c3ccc(C#N)nc23)C[C@H]1C (single isomer, unassigned) [Example 112] |  |  | 7 | 1.6 |  |  | 
17 | 4.8 | 210 |  |  | COc1cc(F)ccc1C(c1ccc(F)cc1)N1C[C@H](C)N(c2c([N+](=O)[O-])c(=O)n(C)c3ccc(C#N)nc23)C[C@H]1C (single isomer, unassigned) [Example 122] |  |  | 10 | 3.8 |  |  | 
18 | 0.76 | 40 |  |  | COC(=O)C1CN(c2cc(=O)n(C)c3ccc(C#N)nc23)CCN1C(c1ccc(F)cc1)c1ccc(F)cc1OC (single isomer, unassigned) [Example 72, Methyl 4-(6-cyano-1-methyl-2-oxo-1,2-dihydro-1,5-naphthyridin-4-yl)-1-((4-fluoro-2-methoxyphenyl)(4-fluorophenyl)methyl)piperazine-2-carboxylate] | 1.2 | 0.078 |  |  |  |  | 
